{"source": "patent US20140273008A1", "about": "“METHODS TO ASSESS ENZYME ACTIVITY USING MASS SPECTROMETRIC IMMUNOASSAY” (Molecular BioProducts, Inc., priority 2013, published 2014)", "biological_target": "T1, DPP4 (Homo sapiens, UniProt P27487)", "T1 construct": "from tissue; host or cells: human heparinized plasma", "T1 sequence (P27487 39-766 limits assumed)": "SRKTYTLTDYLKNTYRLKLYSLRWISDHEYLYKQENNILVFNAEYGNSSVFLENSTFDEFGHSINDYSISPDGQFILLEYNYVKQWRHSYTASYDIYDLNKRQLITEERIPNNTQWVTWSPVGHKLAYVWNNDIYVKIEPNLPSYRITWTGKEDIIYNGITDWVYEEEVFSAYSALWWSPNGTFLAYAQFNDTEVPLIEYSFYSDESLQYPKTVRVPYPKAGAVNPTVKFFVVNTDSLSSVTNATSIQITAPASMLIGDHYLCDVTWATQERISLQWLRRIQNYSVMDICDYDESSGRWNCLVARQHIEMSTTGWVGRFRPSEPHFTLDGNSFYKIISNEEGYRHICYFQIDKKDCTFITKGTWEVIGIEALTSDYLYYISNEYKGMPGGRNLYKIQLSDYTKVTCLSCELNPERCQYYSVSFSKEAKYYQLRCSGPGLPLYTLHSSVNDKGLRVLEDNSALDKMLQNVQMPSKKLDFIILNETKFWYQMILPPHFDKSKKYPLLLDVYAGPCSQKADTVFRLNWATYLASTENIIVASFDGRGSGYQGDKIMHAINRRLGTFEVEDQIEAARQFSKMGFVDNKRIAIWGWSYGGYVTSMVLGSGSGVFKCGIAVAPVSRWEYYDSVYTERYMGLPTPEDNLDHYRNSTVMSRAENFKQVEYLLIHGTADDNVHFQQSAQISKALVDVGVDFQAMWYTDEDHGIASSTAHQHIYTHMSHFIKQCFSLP", "experiment": "DPP4 activity by MSIA: substrate conversion in human heparinized plasma spiked with recombinant DPP4 substrate peptide and inhibitor", "assay_type": "biochemical", "protocol": "MSIA is a method by which sample purification and preparation occurs essentially simultaneously with sample aliquot and delivery. More specifically, a pipette tip, into which a specific volume of a clinical sample, human or animal, is drawn, contains an affinity reagent for selective preparation and immuno-affinity purification of the sample for subsequent direct mass spectrometer analysis; i.e., no intervening purification steps are performed. As shown schematically in FIG. 1, a clinical sample is drawn into a pipette tip containing an exogenous synthetic peptide substrate. The clinical sample and the exogenous peptide substrate are incubated to effect binding of the exogenous peptide substrate to a specific enzyme that is present in the clinical sample. After washes with buffer and water, the eluant is used for subsequent MS analysis. In this elution process, the eluate is dispensed into a microtiter plate for LC/MS application, directly into a LC/MS, or onto a target for MS insertion. Regardless of the MS technique applied, the eluant contained the exogenous peptide substrates, both the parent exogenous peptide substrate and the cleaved degraded product that was produced based on the activity of the enzyme contained in the clinical sample.\nAn exogenous synthetic peptide that is a substrate for the enzyme to be assessed is introduced into a clinical specimen, e.g., blood, urine, plasma, cerebrospinal fluid, lymphatic fluid, etc., i.e., the clinical sample is spiked or doped with the exogenous synthetic peptide substrate. For example, if the enzyme to be assessed is DPP4, the sample may be spiked with an exogenous peptide substrate for DPP4, e.g., recombinant GLP1, natriuretic peptide, etc. The exogenous synthetic peptide substrate that is added to the clinical sample in vitro is termed the parent substrate. The sample is then analyzed by MS, or is incubated for a set period of time before MS analysis. Incubation may be for any desired time period, and at any desired temperature, e.g., ambient temperature 19° C.-22° C., or at another desirable temperature, e.g., 37° C. Enzyme that is present in the clinical sample proteolytically cleaves the exogenous parent synthetic peptide substrate into a smaller fragment. The exogenous synthetic peptide substrates, both the parent (unreacted) and the cleaved (reacted) degraded product, are the targets that are monitored by subsequent MSIA. The method may be summarized as follows:\nIn one embodiment, a MS measurement of the exogenous synthetic peptide substrate in the sample (step (b)) is performed at a single time point, e.g., 15 min. In one embodiment, a MS measurement of the exogenous synthetic peptide substrate in the sample (step (b)) is performed over a time course, e.g., from 100% substrate to decreased or essentially depleted substrate. The time course may be performed utilizing sequential aliquot removal from the same clinical sample, or may be performed on multiple samples assayed in parallel. In all embodiments, the clinical samples are analyzed using MSIA, which selectively targets the substrate peptide, both reacted and non-reacted. MS detection allows for differentiation of the two forms, i.e., the reacted (cleaved, degraded) form of the substrate peptide, and unreacted parent form of the substrate peptide. It thus provides a method of analyzing the activity of an enzyme in a biological system.\nIn embodiments, clinical samples were treated with various inhibitors to determine the modulation, if any, of the endogenous enzyme activity. For example, if DPP4 was the enzyme whose activity was to be assessed, inhibitors were used that were known or speculated to inhibit DPP4 activity. Concentration studies were also performed (data not shown).\nThe following results were obtained with the leupeptin inhibitor:\nThe following results were obtained with the AEBSF inhibitor: […]", "key": {"[1]": {"details": "Human Plasma 1, 5 mM AEBSF, 0 min"}, "[2]": {"details": "Human Plasma 1, 5 mM AEBSF, 15 min"}, "[3]": {"details": "Human Plasma 1, 5 mM AEBSF, 30 min"}, "[4]": {"details": "Human Plasma 1, 5 mM AEBSF, 45 min"}, "[5]": {"details": "Human Plasma 1, 5 mM AEBSF, 60 min"}, "[6]": {"details": "Human Plasma 1, 5 mM AEBSF, 75 min"}, "[7]": {"details": "Human Plasma 1, 1 mM leupeptin, 0 min"}, "[8]": {"details": "Human Plasma 1, 1 mM leupeptin, 15 min"}, "[9]": {"details": "Human Plasma 1, 1 mM leupeptin, 30 min"}, "[10]": {"details": "Human Plasma 1, 1 mM leupeptin, 45 min"}, "[11]": {"details": "Human Plasma 1, 1 mM leupeptin, 60 min"}, "[12]": {"details": "Human Plasma 1, 1 mM leupeptin, 75 min"}}}
{"compound": "NCCc1ccc(S(=O)(=O)F)cc1", "note": "[AEBSF]", "values": [{"measurement": "% Product", "setting": "[1]", "value": 0, "unit": "%"}, {"measurement": "% Substrate", "setting": "[1]", "value": 100, "unit": "%"}, {"measurement": "% Product", "setting": "[2]", "value": 11.7, "unit": "%"}, {"measurement": "% Substrate", "setting": "[2]", "value": 88.3, "unit": "%"}, {"measurement": "% Product", "setting": "[3]", "value": 17.4, "unit": "%"}, {"measurement": "% Substrate", "setting": "[3]", "value": 82.6, "unit": "%"}, {"measurement": "% Product", "setting": "[4]", "value": 22.2, "unit": "%"}, {"measurement": "% Substrate", "setting": "[4]", "value": 77.8, "unit": "%"}, {"measurement": "% Product", "setting": "[5]", "value": 24.3, "unit": "%"}, {"measurement": "% Substrate", "setting": "[5]", "value": 75.7, "unit": "%"}, {"measurement": "% Product", "setting": "[6]", "value": 24.8, "unit": "%"}, {"measurement": "% Substrate", "setting": "[6]", "value": 75.2, "unit": "%"}]}
{"compound": "CC(=O)N[C@@H](CC(C)C)C(=O)N[C@@H](CC(C)C)C(=O)N[C@H](C=O)CCCNC(=N)N", "note": "[leupeptin]", "values": [{"measurement": "% Product", "setting": "[7]", "value": 0, "unit": "%"}, {"measurement": "% Substrate", "setting": "[7]", "value": 100, "unit": "%"}, {"measurement": "% Product", "setting": "[8]", "value": 52.6, "unit": "%"}, {"measurement": "% Substrate", "setting": "[8]", "value": 47.4, "unit": "%"}, {"measurement": "% Product", "setting": "[9]", "value": 77.8, "unit": "%"}, {"measurement": "% Substrate", "setting": "[9]", "value": 22.2, "unit": "%"}, {"measurement": "% Product", "setting": "[10]", "value": 85.1, "unit": "%"}, {"measurement": "% Substrate", "setting": "[10]", "value": 14.9, "unit": "%"}, {"measurement": "% Product", "setting": "[11]", "value": 87.9, "unit": "%"}, {"measurement": "% Substrate", "setting": "[11]", "value": 12.1, "unit": "%"}, {"measurement": "% Product", "setting": "[12]", "value": 90.2, "unit": "%"}, {"measurement": "% Substrate", "setting": "[12]", "value": 9.8, "unit": "%"}]}
